Test results from US20250144067A1, “PERSONALIZED STARVATION THERAPY FOR CANCER” (Faeth Therapeutics, Inc., priority 2021, published 2025).
Where a name gives a salt, the structure may show the parent alone.

Legend:
[1] = system: NCI-H292 lung cancer cells; test: FDA drug screening, complete media vs cholesterol-free media without statin (TABLE 1); format: cell-based, human
[2] = system: NCI-H292 lung cancer cells; test: FDA drug screening, complete media vs cholesterol-free media with simvastatin (TABLE 2); format: cell-based, human; conditions: for Cholesterol-free media + simvastatin (0.04 μM) / Complete Media: NCI-H292 cells
[3] = NCI-H292 cells, cholesterol-free media without statin
[4] = complete vs cholesterol-free media, greater than 0 enhanced anti-cancer activity, about 0 neutral, below 0 antagonists
[5] = drug in cholesterol-free media with simvastatin 0.04 μM
[6] = complete media vs cholesterol-free media + simvastatin (0.04 μM), >0 enhanced anti-cancer activity, about 0 neutral, <0 antagonist
[7] = Complete minus Cholesterol-free, >0 enhanced anti-cancer activity, about 0 neutral, <0 antagonist
[8] = cholesterol-free media with simvastatin 0.04 μM, FDA drug library screen (TABLE 2)
[9] = complete media, FDA drug library screen (TABLE 2)
[10] = complete media minus cholesterol-free media + simvastatin (0.04 μM), >0 enhanced anti-cancer activity, about 0 neutral, <0 antagonist
[11] = NCI-H292 cells, cholesterol-free media without statin, FDA drug library screen
[12] = NCI-H292 cells, complete media, FDA drug library screen
[13] = complete vs cholesterol-free media, >0 enhanced anti-cancer activity, about 0 neutral, <0 antagonist
[14] = NCI-H292 cells in cholesterol-free media without statin
[15] = NCI-H292 cells in complete media
[16] = FDA library drug in cholesterol-free media with simvastatin 0.04 μM
[17] = FDA library drug in complete media
[18] = FDA drug library screen, cholesterol-free media with simvastatin 0.04 μM
[19] = FDA drug library screen, complete media
[20] = complete media minus cholesterol-free media + simvastatin, >0 enhanced anti-cancer activity, about 0 neutral, <0 antagonist
[21] = cholesterol-free media with simvastatin 0.04 μM, cell growth value in FDA drug screen
[22] = complete media, cell growth value in FDA drug screen

Cc1cc(=O)[nH]c(=S)[nH]1 [Methylthiouracil]
Cholesterol-free [1, 3]: 1.055
Complete ([1]; NCI-H292 cells, complete media): 0.7083
Difference [1, 4]: −0.35
Cholesterol-free media + simvastatin (0.04 μM) [2, 5]: 1.089
Complete Media ([2]; drug in complete media): 0.882
Difference [2, 6]: −0.21

Cn1c(=O)c2c(ncn2CC(=O)O)n(C)c1=O [Acefylline]
Difference [1, 7]: −0.31
Cholesterol-free [1, 3]: 1.455
Cholesterol-free media + simvastatin (0.04 μM) [2, 8]: 1.078
Complete Media [2, 9]: 1.058
Difference [2, 10]: −0.02

[H]/N=C(\N/C(=N/[H])NCCCCCCNC(=N)NC(=N)Nc1ccc(Cl)cc1)Nc1ccc(Cl)cc1 [Chlorhexidine (digluconate)]
Cholesterol-free [1, 11]: 0.8244
Complete [1, 12]: 0.943
Difference [1, 13]: 0.12
Cholesterol-free media + simvastatin (0.04 μM) [2, 8]: 1.008
Complete Media [2, 9]: 0.9694
Difference [2, 10]: −0.04

NCCc1c[nH]cn1.O=P(O)(O)O [Histamine (phosphate)]
Difference [1, 7]: −0.23
Cholesterol-free [1, 3]: 1.032
Complete ([1]; NCI-H292 cells, complete media): 0.8034
Cholesterol-free media + simvastatin (0.04 μM) [2, 8]: 1.025
Complete Media [2, 9]: 1.021
Difference [2, 10]: 0.00

CC/C=C\C/C=C\C/C=C\C/C=C\C/C=C\C/C=C\CCC(=O)O [Docosahexaenoic Acid]
Cholesterol-free [1, 11]: 1.175
Complete [1, 12]: 1.764
Difference [1, 13]: 0.59
Cholesterol-free media + simvastatin (0.04 μM) [2, 5]: 1.034
Complete Media ([2]; drug in complete media): 0.8041
Difference [2, 6]: −0.23

O=C([O-])[C@H](O)[C@@H](O)[C@H](O)[C@H](O)CO.[Na+] [Gluconate (sodium)]
Difference ([1]; Complete minus Cholesterol-free, […]): −0.62
Cholesterol-free [1, 14]: 1.575
Complete [1, 15]: 0.95
Cholesterol-free media + simvastatin (0.04 μM) [2, 16]: 1.406
Complete Media [2, 17]: 0.9873
Difference ([2]; complete media vs cholesterol-free media + simvastatin (0.04 μM), […]): −0.42

CC(CCc1ccc(O)cc1)NCCc1ccc(O)c(O)c1 (stereo not shown) [Dobutamine (hydrochloride)]
Difference [1, 7]: 0.01
Cholesterol-free [1, 11]: 1.125
Complete [1, 12]: 1.131
Cholesterol-free media + simvastatin (0.04 μM) [2, 18]: 0.8343
Complete Media [2, 19]: 1.237
Difference [2, 20]: 0.40

CN1CCN(C2=Nc3ccccc3Oc3ccc(Cl)cc32)CC1 [Loxapine]
Difference [1, 7]: −0.26
Cholesterol-free [1, 3]: 1.313
Complete ([1]; NCI-H292 cells, complete media): 1.056
Cholesterol-free media + simvastatin (0.04 μM) [2, 21]: 0.8194
Complete Media [2, 22]: 0.9125
Difference [2, 20]: 0.09

COc1ccc2[nH]cc(CCNC(C)=O)c2c1 [Melatonin]
Difference [1, 7]: 0.05
Cholesterol-free [1, 11]: 0.9489
Complete [1, 12]: 0.9969
Cholesterol-free media + simvastatin (0.04 μM) [2, 18]: 1.501
Complete Media [2, 19]: 1.753
Difference [2, 20]: 0.25

O=P(O)(O)C(O)(Cc1cccnc1)P(=O)(O)O [Risedronate (sodium)]
Difference [1, 7]: −0.30
Cholesterol-free [1, 3]: 1.022
Complete ([1]; NCI-H292 cells, complete media): 0.7264
Cholesterol-free media + simvastatin (0.04 μM) [2, 21]: 0.8847
Complete Media [2, 22]: 0.9961
Difference [2, 20]: 0.11

O=C1OC(c2ccc(O)cc2)(c2ccc(O)cc2)c2ccccc21 [Phenolphthalein]
Difference [1, 7]: −0.30
Cholesterol-free [1, 3]: 1.17
Complete ([1]; NCI-H292 cells, complete media): 0.8721
Cholesterol-free media + simvastatin (0.04 μM) [2, 5]: 1.026
Complete Media ([2]; drug in complete media): 0.7863
Difference [2, 6]: −0.24

Pyrantel (tartrate)
Difference ([1]; Complete minus Cholesterol-free, greater than 0 enhanced anti-cancer activity, about 0 neutral, below 0 antagonist): −0.17
Complete ([1]; NCI-H292 cells, FDA drug library screen, complete media): 0.9815
Cholesterol-free media + simvastatin (0.04 μM) [2, 16]: 1.712
Complete Media [2, 17]: 1.209
Difference [2, 6]: −0.50

O=C1C2CC3CC1CC(O)(C3)C2 [Idramantone]
Difference ([1]; Complete minus Cholesterol-free, greater than 0 enhanced anti-cancer activity, about 0 neutral, below 0 antagonists): −0.71
Cholesterol-free [1, 14]: 1.638
Complete [1, 15]: 0.9237
Cholesterol-free media + simvastatin (0.04 μM) [2, 18]: 1.208
Complete Media [2, 19]: 1.085
Difference [2, 6]: −0.12

O=C(O)c1ccc(-n2nc(-c3ccccc3O)nc2-c2ccccc2O)cc1 [Deferasirox]
Cholesterol-free [1, 3]: 1.441
Complete ([1]; NCI-H292 cells, complete media): 0.9894
Difference [1, 4]: −0.45
Cholesterol-free media + simvastatin (0.04 μM) [2, 5]: 1.22
Complete Media ([2]; drug in complete media): 0.9596
Difference [2, 6]: −0.26

CCCc1nn(C)c2c(=O)[nH]c(-c3cc(S(=O)(=O)N4CCN(CCO)CC4)ccc3OCC)nc12 [Lodenafil]
Difference [1, 7]: −0.27
Cholesterol-free [1, 3]: 0.8421
Complete ([1]; NCI-H292 cells, complete media): 0.5699
Cholesterol-free media + simvastatin (0.04 μM) [2, 21]: 0.819
Complete Media [2, 22]: 0.8488
Difference [2, 20]: 0.03
